According to publication PMC7288052 (Molecules, 2020):
Where two headings read alike, the source gives them in different places. Non-standard residues stand in square brackets, D forms with d. Residues, ends and D or L forms follow the SMILES beside them.

Columns and labels:
δ-opioid receptor (δOR) = biological target: T1, δ-opioid receptor (δOR) (Rattus norvegicus, UniProt P33533); test: competitive radioligand displacement assay, δOR, [3H]DELT II, rat brain homogenate membranes; assay type: binding; settings: for δOR affinity in words: [3H]DELT II displacement, compared to parent TAPP
T1 construct: from tissue; host or cells: rat brain homogenate (membrane fractions)
Description: (§1) The determinations were performed by a competitive radioligand displacement assay with selective radioligands.
(§2) Membrane fractions of rat brain Homogenate were incubated at 25 °C for 60 mins in the presence of radioligands (0.5 nM) specific for each receptor (μOR: [^3H]DAMGO and δOR: [^3H]DELT II, obtained as a generous gift from Prof. Géza Tóth) and the increasing concentrations of the tested compounds (10^−11 up to 10^−5 M, each concentration in duplicate). For measuring non-specific binding, 10 μM naloxone was used as the competitor. The assay buffer contained 50mM Tris-HCl (pH 7.4), bovine serum albumin (0.1 mg/mL), bacitracin (30 μg/mL), bestatin (30 μM), captopril (10 μM), and phenylmethylsulfonyl fluoride (0.1 mM) in the total reaction volume of 1 mL. After the incubation, the binding reactions were terminated by rapid filtration with M-24 Cell Harvester (Brandel/USA) through GF/B Whatman glass fibre strips. The filters were pre-soaked with 0.5% PEI before harvesting in order to minimize non-specific binding. Filter discs were placed separately in 24-well plates and immersed with the Optiphase Supermix scintillation cocktail (Perkin Elmer, Waltham, MA, USA). Radioactivity was measured using a MicroBeta LS Trilux scintillation counter (PerkinElmer, Waltham, MA, USA).

[1] = stability against proteolysis in human plasma by HPLC/MS; assay type: in vitro ADME; settings: for remaining at 96 h, 350 µM: read-out: C96h, percent of the initial peptide concentration remaining after 96 h; for site of the first proteolytic cleavage: HPLC/MS; for stability in human plasma in words: up to 96 h, compared to TAPP; for half-life / half-life at […]: read-out: half-life time (T1/2) in human plasma (converted)
Description: The results are graphically presented in Figure 7 and the representative HPLC chromatograms are given in Figures SM-STAB-1 to SM-STAB-22 in Supplementary Materials. […] After 96 h, more than 90% of the initial peptide concentration (C96h > 90%) remained in the test sample. This is in marked contrast to endomorphin-2 (Tyr-Pro-Phe-Phe-NH2) that, in the very same conditions, is rapidly degraded with half-life time (T1/2) of only 30 min.
The determination of plasma stability was performed according to a previously described protocol with minor modifications. Human plasma for testing was obtained from a healthy donor. […] Portions of the plasma (100 μL) were dispensed into Eppendorf tubes and equilibrated at 37 ± 1 °C for 5 min, before adding 100 μL of the stock solution of each tested peptide. Samples of the test solution were taken and analyzed at several time points (0, 1, 2, 3, 4, 5, 6, 12, 24, 48, and 96 h of the experiment).
In order to precipitate the plasma proteins, 400 μL ethanol (98%) was added to the samples, whereafter shaking (1 min) and cooling in 4 °C (5 min) followed. Subsequently, the samples were centrifuged for 10 min at 2000 g. The supernatant (20 μL) was immediately analyzed by HPLC/MS using the LCMS-2010EV Shimadzu apparatus with a Phenomenex Jupiter 4u Proteo 90A, C12 (25 cm × 2 mm × 4 μm) column. The chromatography was performed in reversed-phase system (solvents A: 0.05% FA in water, B: 0.05% FA in acetonitrile) with a non-linear gradient was used (1–31% B in 20 min followed by an increase to 97% B from 20 to 30 min) at a solvent flow of 0.5 mL/min. The activity of the plasma was confirmed by using endomorphin-2 ([…]) as a control sample. The results of the HPLC/MS analyses allowed for quantitative determination of the concentration changes of the tested peptides. Furthermore, it was possible to indicate the location of the first proteolytic cleavage.

μ-opioid receptor (μOR) = biological target: T2, μ-opioid receptor (μOR) (Rattus norvegicus, UniProt P33535); test: competitive radioligand displacement assay, μOR, [3H]DAMGO, rat brain homogenate membranes; assay type: binding; settings: for decrease in μOR affinity compared to the parent TAPP: ratio of IC50 versus TAPP
T2 construct: from tissue; host or cells: rat brain homogenate (membrane fractions)
Description: as §1, §2

[2] = Human plasma for testing was obtained from a healthy donor; settings: 37 ± 1 °C, up to 96 h
[3] = radioligand 0.5 nM [3H]DELT II, rat brain homogenate, mean of three determinations in duplicate, read-out: IC50 δOR
[4] = radioligand 0.5 nM [3H]DAMGO, rat brain homogenate, mean of three determinations in duplicate, read-out: IC50 ± S.E.M. μOR

T1 sequence (P33533 whole entry): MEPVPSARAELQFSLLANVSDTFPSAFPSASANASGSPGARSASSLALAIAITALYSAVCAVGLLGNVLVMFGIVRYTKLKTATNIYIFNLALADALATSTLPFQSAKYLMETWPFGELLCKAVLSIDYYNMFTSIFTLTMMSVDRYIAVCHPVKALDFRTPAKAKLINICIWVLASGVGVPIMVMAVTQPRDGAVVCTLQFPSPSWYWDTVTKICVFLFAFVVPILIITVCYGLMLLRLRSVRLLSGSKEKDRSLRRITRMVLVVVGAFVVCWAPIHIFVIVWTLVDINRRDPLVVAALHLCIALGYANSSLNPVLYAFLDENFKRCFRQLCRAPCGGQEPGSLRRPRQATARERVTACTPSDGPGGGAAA
T2 sequence (P33535 whole entry): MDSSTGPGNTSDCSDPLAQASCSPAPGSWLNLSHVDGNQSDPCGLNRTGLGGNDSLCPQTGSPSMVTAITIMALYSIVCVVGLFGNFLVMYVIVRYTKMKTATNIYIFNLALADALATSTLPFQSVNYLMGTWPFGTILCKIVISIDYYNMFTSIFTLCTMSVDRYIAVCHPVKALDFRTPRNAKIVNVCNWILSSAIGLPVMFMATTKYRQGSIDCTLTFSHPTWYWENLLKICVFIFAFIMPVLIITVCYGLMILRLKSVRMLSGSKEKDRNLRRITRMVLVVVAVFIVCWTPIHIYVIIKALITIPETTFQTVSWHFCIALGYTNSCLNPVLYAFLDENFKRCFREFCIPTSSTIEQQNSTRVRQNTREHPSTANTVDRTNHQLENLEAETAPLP

Molecule: C[C@@H](NC(=O)[C@@H](N)Cc1ccc(O)cc1)C(=O)N[C@@H](Cc1ccccc1)C(=O)N[C@@H](Cc1ccccc1)C(N)=O [compound 1, H-Tyr-D-Ala-Phe-Phe-NH2, reference compound] (HELM PEPTIDE1{Y.[dA].F.F.[am]}$$$$V2.0)
- IC50 (δ-opioid receptor (δOR)): 616 nM
- δOR affinity in words (δ-opioid receptor (δOR)): low binding
- remaining at 96 h, 350 µM ([1]; 37 °C): > 90%
- site of the first proteolytic cleavage [1]: C-terminal amide (deamidation)
- stability in human plasma in words [1]: resistant to proteolysis

Molecule: C[C@@H](NC(=O)[C@@H](CN)Cc1ccc(O)cc1)C(=O)N[C@@H](Cc1ccccc1)C(=O)N[C@@H](Cc1ccccc1)C(N)=O [compound 8, [(R)-β^2hTyr^1]-TAPP*]
- δOR affinity in words (δ-opioid receptor (δOR)): did not exhibit any measurable binding
- IC50 (δ-opioid receptor (δOR); [3]): > 10000 nM
- IC50 (μ-opioid receptor (μOR); [4]): 77.6 ± 2.4 nM
- decrease in μOR affinity compared to the parent TAPP (μ-opioid receptor (μOR)): about 15 fold
- site of the first proteolytic cleavage [1]: C-terminal amide (deamidation)
- stability in human plasma in words [1]: stability similar to TAPPs

Molecule: C[C@@H](NC(=O)[C@@H](CN)Cc1cccc(O)c1)C(=O)N[C@@H](Cc1ccccc1)C(=O)N[C@@H](Cc1ccccc1)C(N)=O [compound 9, [(R)-β^2h-m-Tyr^1]-TAPP*]
- δOR affinity in words (δ-opioid receptor (δOR)): did not exhibit any measurable binding
- IC50 (δ-opioid receptor (δOR); [3]): > 10000 nM
- IC50 (μ-opioid receptor (μOR); [4]): 48.9 ± 2.3 nM
- site of the first proteolytic cleavage [1]: C-terminal amide (deamidation)
- stability in human plasma in words [1]: stability similar to TAPPs

Molecule: C[C@@H](CNC(=O)[C@@H](N)Cc1ccc(O)cc1)C(=O)N[C@@H](Cc1ccccc1)C(=O)N[C@@H](Cc1ccccc1)C(N)=O [compound 10, [(S)-β^2hAla^2]-TAPP]
- half-life ([1]; 37 °C): ~4.5 h

Molecule: C[C@@H](NC(=O)[C@@H](N)Cc1ccc(O)cc1)C(=O)NC[C@@H](Cc1ccccc1)C(=O)N[C@@H](Cc1ccccc1)C(N)=O [compound 11, [(R)-β^2hPhe^3]-TAPP]
- IC50 (δ-opioid receptor (δOR)): 794 nM
- δOR affinity in words (δ-opioid receptor (δOR)): at a level similar to the parent TAPP
- IC50 (μ-opioid receptor (μOR)): 95.4 ± 2.5 nM
- decrease in μOR affinity compared to the parent TAPP (μ-opioid receptor (μOR)): more than 10 fold
- half-life at […] ([1]; 37 °C): ~40 h

Molecule: C[C@@H](NC(=O)[C@@H](N)Cc1ccc(O)cc1)C(=O)N[C@@H](Cc1ccccc1)C(=O)NC[C@@H](Cc1ccccc1)C(N)=O [compound 12, [(R)-β^2hPhe^4]-TAPP]
- IC50 (δ-opioid receptor (δOR)): 708 nM
- δOR affinity in words (δ-opioid receptor (δOR)): at a level similar to the parent TAPP
- IC50 (μ-opioid receptor (μOR)): 1.9 ± 2.4 nM
- remaining at 96 h, 350 µM ([1]; 37 °C): 55%

Molecule: C[C@@H](NC(=O)[C@H](CN)Cc1ccc(O)cc1)C(=O)N[C@@H](Cc1ccccc1)C(=O)N[C@@H](Cc1ccccc1)C(N)=O [compound 13, [(S)-β^2hTyr^1]-TAPP*]
- δOR affinity in words (δ-opioid receptor (δOR)): did not exhibit any measurable binding
- IC50 (δ-opioid receptor (δOR); [3]): > 10000 nM
- IC50 (μ-opioid receptor (μOR); [4]): 339 ± 5.1 nM
- site of the first proteolytic cleavage [1]: C-terminal amide (deamidation)
- stability in human plasma in words [1]: stability similar to TAPPs

Molecule: C[C@@H](NC(=O)[C@H](CN)Cc1cccc(O)c1)C(=O)N[C@@H](Cc1ccccc1)C(=O)N[C@@H](Cc1ccccc1)C(N)=O [compound 14, [(S)-β^2h-m-Tyr^1]-TAPP*]
- δOR affinity in words (δ-opioid receptor (δOR)): did not exhibit any measurable binding
- IC50 (δ-opioid receptor (δOR); [3]): > 10000 nM
- IC50 (μ-opioid receptor (μOR); [4]): 11.2 ± 6.3 nM
- site of the first proteolytic cleavage [1]: C-terminal amide (deamidation)
- stability in human plasma in words [1]: stability similar to TAPPs

Molecule: C[C@H](CNC(=O)[C@@H](N)Cc1ccc(O)cc1)C(=O)N[C@@H](Cc1ccccc1)C(=O)N[C@@H](Cc1ccccc1)C(N)=O [compound 15, [(R)-β^2hAla^2]-TAPP]
- half-life ([1]; 37 °C): ~4.5 h

Molecule: C[C@@H](NC(=O)[C@@H](N)Cc1ccc(O)cc1)C(=O)NC[C@H](Cc1ccccc1)C(=O)N[C@@H](Cc1ccccc1)C(N)=O [compound 16, [(S)-β^2hPhe^3]-TAPP]
- IC50 (δ-opioid receptor (δOR)): 890 nM
- δOR affinity in words (δ-opioid receptor (δOR)): at a level similar to the parent TAPP
- IC50 (μ-opioid receptor (μOR)): 15.5 ± 2.5 nM
- remaining at 96 h, 350 µM ([1]; 37 °C): > 65%

Molecule: C[C@@H](NC(=O)[C@@H](N)Cc1ccc(O)cc1)C(=O)N[C@@H](Cc1ccccc1)C(=O)NC[C@H](Cc1ccccc1)C(N)=O [compound 17, [(S)-β^2hPhe^4]-TAPP]
- IC50 (δ-opioid receptor (δOR)): 417 nM
- δOR affinity in words (δ-opioid receptor (δOR)): slight improvement in δOR affinity when compared to the parent peptide
- IC50 (μ-opioid receptor (μOR)): 7.8 ± 4 nM
- remaining at 96 h, 350 µM ([1]; 37 °C): ~90%
- stability in human plasma in words [1]: equally resistant to proteolysis as the parent

Molecule: NC(=O)[C@H](Cc1ccccc1)NC(=O)[C@H](Cc1ccccc1)NC(=O)[C@@H]1CCCN1C(=O)[C@@H](N)Cc1ccc(O)cc1 [endomorphin-2, Tyr-Pro-Phe-Phe-NH2, reference compound]
- half-life at […] ([1]; same conditions, control sample): 0.5 h

Molecule: H-Y[dA]FF-NH2
- cleaved bond [2]: Phe4-NH2, first_seen

Molecule: [(R)-β^2h-m-Tyr^1]-TAPP*
- cleaved bond [2]: Phe4-NH2, first_seen

Molecule: [(R)-β^2hAla^2]-TAPP
- cleaved bond [2]: Tyr1-(R)-β^2hAla2, first_seen

Molecule: [(R)-β^2hPhe^3]-TAPP
- cleaved bond [2]: Tyr1-D-Ala2, first_seen

Molecule: [(R)-β^2hPhe^4]-TAPP
- cleaved bond [2]: Tyr1-D-Ala2, first_seen

Molecule: [(R)-β^2hTyr^1]-TAPP*
- cleaved bond [2]: Phe4-NH2, first_seen

Molecule: [(S)-β^2h-m-Tyr^1]-TAPP*
- cleaved bond [2]: Phe4-NH2, first_seen

Molecule: [(S)-β^2hAla^2]-TAPP
- cleaved bond [2]: Tyr1-(S)-β^2hAla2, first_seen

Molecule: [(S)-β^2hPhe^3]-TAPP
- cleaved bond [2]: Tyr1-D-Ala2, first_seen

Molecule: [(S)-β^2hPhe^4]-TAPP
- cleaved bond [2]: Tyr1-D-Ala2, first_seen

Molecule: [(S)-β^2hTyr^1]-TAPP *
- cleaved bond [2]: Phe4-NH2, first_seen
